Measurements: US20090131481A1, “Transcription Factor Modulating Compounds and Methods of Use Thereof” (Paratek Pharmaceuticals, Inc., published 2009)
Like-named read-outs stand apart in the source and are kept apart here.

Tests used:
ExsA = molecular target: T1, ExsA (Pseudomonas aeruginosa, UniProt P26993); test: Chemiluminescence-based ExsA-DNA binding assay; set-up: species or system P. aeruginosa
T1 construct: made in house
T1 sequence (P26993 1-278): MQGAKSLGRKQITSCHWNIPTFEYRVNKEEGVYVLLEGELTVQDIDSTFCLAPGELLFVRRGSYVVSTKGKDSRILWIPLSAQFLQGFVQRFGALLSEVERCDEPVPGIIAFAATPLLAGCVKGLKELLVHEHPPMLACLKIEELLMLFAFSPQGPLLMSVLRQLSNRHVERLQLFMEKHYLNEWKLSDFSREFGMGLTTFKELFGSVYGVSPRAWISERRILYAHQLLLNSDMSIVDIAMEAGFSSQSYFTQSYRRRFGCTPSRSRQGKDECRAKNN

SlyA = molecular target: T2, SlyA (Escherichia coli, UniProt P0A8W2); test: biochemical; type: binding, E. coli
T2 sequence (P0A8W2 1-144): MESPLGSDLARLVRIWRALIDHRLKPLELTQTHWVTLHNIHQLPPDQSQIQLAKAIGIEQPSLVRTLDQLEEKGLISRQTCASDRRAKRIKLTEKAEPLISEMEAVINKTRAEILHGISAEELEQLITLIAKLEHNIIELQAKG

MarA = molecular target: T3, MarA (Escherichia coli, UniProt P0ACH5); test: Chemiluminescence-based MarA-DNA binding assay; set-up: species or system E. coli; conditions: Table 10
T3 sequence (P0ACH5 1-127): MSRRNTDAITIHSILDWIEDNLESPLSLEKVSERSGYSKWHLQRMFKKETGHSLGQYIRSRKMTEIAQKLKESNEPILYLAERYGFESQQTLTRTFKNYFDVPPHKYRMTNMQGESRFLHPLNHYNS

Rob = molecular target: T4, Rob (Escherichia coli, UniProt P0ACI0); test: Chemiluminescence-based Rob-DNA binding assay; set-up: species or system E. coli; conditions: Table 10
T4 sequence (P0ACI0 1-289): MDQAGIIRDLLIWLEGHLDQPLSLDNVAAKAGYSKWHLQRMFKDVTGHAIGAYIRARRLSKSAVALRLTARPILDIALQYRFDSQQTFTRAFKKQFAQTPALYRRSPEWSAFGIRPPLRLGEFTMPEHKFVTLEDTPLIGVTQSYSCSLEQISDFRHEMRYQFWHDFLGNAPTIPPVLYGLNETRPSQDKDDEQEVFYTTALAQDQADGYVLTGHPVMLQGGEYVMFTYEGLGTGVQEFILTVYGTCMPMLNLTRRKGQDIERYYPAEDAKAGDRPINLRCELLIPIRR

Rma = molecular target: T5, Rma (Salmonella typhimurium, UniProt H9L484); test: Chemiluminescence-based Rma-DNA binding assay; set-up: species or system S. typhimurium; conditions: Table 10
T5 construct: fused on or other part: 6-histidine tag
T5 sequence (H9L484 1-113): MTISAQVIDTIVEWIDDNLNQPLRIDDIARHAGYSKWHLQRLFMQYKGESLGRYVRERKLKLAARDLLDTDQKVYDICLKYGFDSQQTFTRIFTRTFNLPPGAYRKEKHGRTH

SoxS [1] = molecular target: T6, SoxS (Escherichia coli, UniProt P0A9E2); test: Chemiluminescence-based SoxS-DNA binding assay; set-up: made in house; species or system E. coli
T6 sequence (P0A9E2 1-107): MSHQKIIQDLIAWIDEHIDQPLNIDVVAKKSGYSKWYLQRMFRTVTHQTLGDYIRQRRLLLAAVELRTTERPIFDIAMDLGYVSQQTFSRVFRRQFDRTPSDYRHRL

LcrF (VirF) = LcrF (VirF) (Yersinia pestis, UniProt P28808); test: biochemical; type: binding, Y. pseudotuberculosis
Sequence of LcrF (VirF) (P28808 whole entry, looked up): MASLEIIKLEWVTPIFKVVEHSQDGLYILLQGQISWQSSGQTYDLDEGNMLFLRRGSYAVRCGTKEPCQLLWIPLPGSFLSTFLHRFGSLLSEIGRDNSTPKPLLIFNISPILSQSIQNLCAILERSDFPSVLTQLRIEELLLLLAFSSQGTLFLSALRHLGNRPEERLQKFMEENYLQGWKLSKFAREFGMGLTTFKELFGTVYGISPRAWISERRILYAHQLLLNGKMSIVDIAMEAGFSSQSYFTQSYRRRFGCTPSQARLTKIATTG

P. aeruginosa = P. aeruginosa cytotoxicity whole cell assay (J774 cells, LDH release); conditions: relative to vehicle treated cells infected with wild type P. aeruginosa
SoxS [2] = molecular target: T6, SoxS; test: Electrophoretic mobility shift assay (EMSA) with SoxS; type: binding; conditions: 50 ug/ml compound, 5 nM SoxS
uncut plasmid DNA = test: Qualitative agarose gel DNA intercalation assay; type: binding; conditions: 100 ng uncut plasmid DNA, compared with a known DNA intercalator
E. coli UPEC strain C189 = test: Ascending pyelonephritis model of infection (Example 3); type: in vivo; conditions: female CD1 mice, oral dosing at infection and once a day for 4 days, 5-day infection
Y. pseudotuberculosis = test: microbe, parasite or virus in culture; conditions: Yersinia pseudotuberculosis, J774, read-out: % Cytotoxicity
[3] = Table 7, cell-free system, read-out: ExsA EC50
[4] = dose response analysis (footnote c), read-out: in vitro SoxS activity: concentration necessary to inhibit DNA-protein binding by 50% (EC50)
[5] = EC50 for inhibition of LcrF(VirF)-DNA binding
[6] = Y. pseudotuberculosis VirF EC50
[7] = Table 11, subsequent assay, read-out: P. aeruginosa ExsA EC50
[8] = read-out: % Inhibition (SoxS binding to DNA)

CN(C)c1ccc(C(=O)Nc2ccc(-c3nc4ccc([N+](=O)[O-])cc4n3O)cc2)cc1 [AH]
EC50 (ExsA; [3]): > 25 µM | EC50 (ExsA; Table 10, read-out: ExsA EC50): 1 to 4.9 µM | EC50 (SlyA): > 5 µM | EC50 (MarA): 1 to 4.9 µM | EC50 (Rob): 1 to 4.9 µM | EC50 (Rma): 1 to 4.9 µM | EC50 (SoxS [1]; Table 10, read-out: SoxS EC50): < 0.9 µM | EC50 (SoxS [1]; [4]): < 0.9 µM

CC(=O)c1ccc(/C=C/C(=O)Nc2ccc(-c3nc4ccc([N+](=O)[O-])cc4n3O)cc2)cc1 [AJ, (E)-3-(4-Acetyl-phenyl)-N-[4-(1-hydroxy-6-nitro-H-benzoimidazol-2-yl)-phenyl]-acrylamide]
EC50 (LcrF (VirF); [5]): 10 to 25 µM | EC50 (LcrF (VirF); [6]): < 5 µM | EC50 (ExsA; [7]): < 5 µM | EC50 (SlyA): > 15.1 µM | Cytotoxicity at 50 μg/mL Pseudomonas (P. aeruginosa): ** (reduced P. aeruginosa cytotoxicity below 75% of untreated, wild type levels at 50 mg/mL)

O=[N+]([O-])c1ccc2nc(-c3ccco3)n(O)c2c1 [AU]
activity against SoxS in vitro in an EMSA (SoxS [2]): very active | ability to intercalate DNA (uncut plasmid DNA): not found to intercalate DNA

NC(=O)c1ccc2nc(-c3ccccc3)n(O)c2c1 [BB]
activity against SoxS in vitro in an EMSA (SoxS [2]): moderately active | inhibition at 50 µg/mL (SoxS [1]; [8]): 0 to 29%

NC(=O)c1ccc2nc(-c3ccco3)n(O)c2c1 [BK]
activity against SoxS in vitro in an EMSA (SoxS [2]): lacked activity

CN(C)c1ccc(-c2nc3ccc([N+](=O)[O-])cc3n2O)cc1 [BP]
Efficacy (log10 decrease in the CFU/g kidney tissue) (E. coli UPEC strain C189): *** (exhibited a 0-1.0 log decrease in CFU/g) | ability to intercalate DNA (uncut plasmid DNA): not found to intercalate DNA | EC50 (SoxS [1]; [4]): > 5 µM | inhibition at 50 µg/mL (SoxS [1]; [8]): > 70%

O=[N+]([O-])c1ccc2nc(-c3ccc(-c4ccccc4)o3)n(O)c2c1 [BQ]
Efficacy (log10 decrease in the CFU/g kidney tissue) (E. coli UPEC strain C189): ** (exhibited a 1.1-2.0 log decrease in CFU/g) | EC50 (ExsA; Table 10, read-out: ExsA EC50): > 5 µM | ability to intercalate DNA (uncut plasmid DNA): not found to intercalate DNA | EC50 (SlyA): > 5 µM | EC50 (MarA): > 5 µM | EC50 (Rob): > 5 µM | EC50 (Rma): > 5 µM | EC50 (SoxS [1]; Table 10, read-out: SoxS EC50): 1 to 4.9 µM | EC50 (SoxS [1]; [4]): > 5 µM

CC(=O)Nc1ccccc1-c1nc2ccc([N+](=O)[O-])cc2n1O [BX]
ability to intercalate DNA (uncut plasmid DNA): not found to intercalate DNA | inhibition at 50 µg/mL (SoxS [1]; [8]): 30 to 69%

COc1ccc(C(=O)Nc2ccc(-c3nc4ccc([N+](=O)[O-])cc4n3O)cc2)cc1 [B]
Efficacy (log10 decrease in the CFU/g kidney tissue) (E. coli UPEC strain C189): *** (exhibited a 0-1.0 log decrease in CFU/g) | EC50 (LcrF (VirF); [5]): 10 to 25 µM | EC50 (ExsA; [3]): > 25 µM | inhibition at 50 µg/mL (SoxS [1]; compound screening concentration of 50 μg/ml (footnote b), read-out: in vitro SoxS activity: percent inhibition of DNA-protein binding): > 70% | activity at 50 µg/mL (Y. pseudotuberculosis): < 75%

N#Cc1ccc2nc(-c3ccc(NC(=O)/C=C/c4ccc(F)cc4)cc3)n(O)c2c1 [CM]
EC50 (LcrF (VirF); [6]): 5.1 to 15 µM | EC50 (ExsA; [7]): < 5 µM | EC50 (SlyA): > 15.1 µM | activity at 50 µg/mL (Y. pseudotuberculosis): 75 to 99% | Cytotoxicity at 50 μg/mL Pseudomonas (P. aeruginosa): ** (reduced P. aeruginosa cytotoxicity below 75% of untreated, wild type levels at 50 mg/mL)
